These results are taken from patent US20070117794A1, “Methods of treatment using oxytocin receptor agonists” (Wyeth, priority 2005, published 2007).

For one test, the system named is Male Swiss-Webster mice. The experiment in a line: Four-Plate Test (FPT), punished crossings. The test is classed as in vivo, mouse. The conditions noted are these: 30 minutes prior to testing; for increase in punished crossings from vehicle: icv, p<0.05. The method, then:
Animals: Male Swiss-Webster mice weighing 18-24 g were housed in groups of 15 in hanging wire cages, allowed access to food and water ad libitum, and maintained on a 12-hour light dark cycle. All behavioral testing was performed during the light cycle. All studies were previously approved by the Institutional Animal Care and Use Committee, and performed in accordance to the Guide for the Care and Use of Laboratory Animals as adopted and promulgated by the National Institutes of Health.
Test Compounds: Oxytocin (American Peptide Company, Sunnyvale, Calif.) was dissolved in a saline vehicle. The oxytocin agonist 4,-(3,5-Dihydroxy-benzyl)-piperazine-1-carboxylic acid 2-methyl-4-(3-methyl-4,10-dihydro-3H-2,3,4,9-tetra-aza-benzo[f]azulene-9-carbonyl)-benzylamide (hereinafter “cpd A”) and oxytocin antagonist 10-[(2-Methyl-2′-trifluoromethyl-[1,1′-biphenyl]-4-yl)carbonyl]-10,11-dihydro-5H-pyrrolo[2,1-c][1,4]benzodiazepine-3-carboxylic acid-bis-(2-hydroxy-ethyl)-amide (hereinafter “cpd B”) (Patent W/O 02/083680) were prepared and dissolved in a 1% Tween-80/1% DMSO/saline vehicle.
ICV injections: Mice were lightly anesthetized with halothane. Oxytocin was administered into either the left or right ventricle by visual location. A 26 gauge Hamilton syringe with 3 mm needle was used for injections and the injection site was visualized by locating the middle of the invisible line that runs diagonally from the left eye to the right ear. Test compounds were injected in a 2 μl total volume.
Four-Plate Test (FPT:) The four-plate apparatus consists of a Plexiglas chamber (18×25×16 cm) floored with four identical rectangular metal plates (8×11 cm), which are separated from one another by a gap of 4 mm and connected to a computerized device that can deliver electric shocks (0.8 mA, 0.5 sec) (Aron et al. Evaluation of a rapid technique for detecting minor tranquilizers, Neuropharmacology 10: 459-69 (1971)). In this test, mice are placed into the chamber and following a brief (18 seconds) habituation period, the animal's innate motivation to explore the novel environment is suppressed by the delivery of a mild foot shock every time the animal crosses any of the boundaries (gaps) while moving from one plate to another (referred to as a ‘punished crossing’). Following any punished crossing, there is a 3-second time out where the mouse may cross the electric plates without receiving another shock. An experimenter blind to the dosing conditions administers shocks, and a computer records the total number of punished crossings an animal makes during a 1-minute testing period. […] Pharmacol Biochem Behav 65: 339-44 (2000)). In all experiments, the testing procedure consisted of either a single injection or two injections followed by a test session 30 minutes later.
Statistical Analysis: One-way analysis of variance (ANOVA) was performed to determine effects of test compound treatments, followed by Least Significant Difference Tests for a post hoc analysis. All figures are shown with average ±SEM.

In test [1] the test system is Male Sprague-Dawley derived Rats. The experiment in a line: Prepulse inhibition of the acoustic startle reflex (PPI), MK801 disrupted. The test is classed as in vivo, rat. The note with it: oxytocin 0.04-1 mg/kg s.c.; data not shown. The text has this:
Prepulse inhibition of the acoustic startle reflex (PPI) is an operational measure of sensorimotor gating that can be measured across many species. Deficits in PPI have been reported in patients with schizophrenia, leading to its use as a preclinical model of the disease. In rats, PPI is decreased in a manner homologous to that seen in schizophrenia following administration of certain psychotomimetic drugs (e.g. MK801; amphetamine). In our study we utilized MK801, a non-competitive NMDA antagonist and d-Amphetamine, a non-selective dopamine agonist.
Animals: Male Sprague-Dawley derived Rats (SD) weighing 200-250 g were group housed in standard bedding cages, allowed access to food and water ad libitum, and maintained on a 12-hour light dark cycle. All behavioral testing was performed during the light cycle. All studies were previously approved by the Institutional Animal Care and Use Committee, and performed in accordance to the Guide for the Care and Use of Laboratory Animals as adopted and promulgated by the National Institutes of Health.
Test Compounds: The oxytocin agonist cpd A was dissolved in a 1% Tween-80/1% DMSO/saline vehicle. MK801 (Sigma, St. Louis, Mo.) was dissolved in 2% Tween-80/saline. d-Amphetamine (Sigma, St. Louis, Mo.) was dissolved in saline.
Each testing chamber (SR-LAB system, San Diego Instruments) consisted of a Plexiglas cylinder (8.8 cm in diameter) mounted on a frame and held in position by four metal pins to a base unit. Movement of the rat within the cylinder was detected by a piezoelectric accelerometer attached below the frame. […] Presentation of acoustic pulse and prepulse stimuli were controlled by the SR-LAB software and interface system, which also digitized, rectified and recorded the responses from the accelerometer. Mean startle amplitude was determined by averaging 100, 1 ms readings taken from the beginning of the pulse stimulus onset. For calibration purposes, sound levels were measured with a Quest sound level meter, scale “A”, with the microphone placed inside the Plexiglas cylinder. […]
Startle amplitude was defined as the mean value of pulse alone trials. To evaluate the effect of drug treatment on startle response, data from the pulse alone trials was analyzed using one-factor ANOVA with repeated measures (one-way randomized block design), followed by a least significant difference (LSD) post-hoc test (comparison was made to vehicle/disrupting agent control). […] Although data for gating at three different prepulse intensities was generated, an averaged gating score across all prepulse intensities was calculated and this was analyzed by one factor ANOVA with repeated measures (one-way randomized block design). […]

The next test deals with male rats. The note with it: OT 1-4 ug/kg, s.c.; cited from earlier work.
Another test has as its system mouse. The note with it: OT 3 mg/kg, i.p.; cited from earlier work.
The next test concerns rats. The note with it: cited from earlier work.
A further test addresses T1, OTR (Homo sapiens, UniProt P30559).
T1 sequence (P30559 1-389): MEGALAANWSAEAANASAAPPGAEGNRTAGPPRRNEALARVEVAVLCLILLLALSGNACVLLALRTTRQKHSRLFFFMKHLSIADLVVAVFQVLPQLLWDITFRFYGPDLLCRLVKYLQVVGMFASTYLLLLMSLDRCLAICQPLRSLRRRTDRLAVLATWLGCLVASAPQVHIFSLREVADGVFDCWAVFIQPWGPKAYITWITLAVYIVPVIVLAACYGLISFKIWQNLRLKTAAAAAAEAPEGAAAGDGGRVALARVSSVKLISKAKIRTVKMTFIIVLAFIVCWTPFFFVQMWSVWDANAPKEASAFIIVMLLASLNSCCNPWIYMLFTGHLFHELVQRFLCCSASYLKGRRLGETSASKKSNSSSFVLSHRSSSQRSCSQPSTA
The note with it: cited from earlier work.

The next test concerns rat. The note with it: subcutaneous oxytocin; deficit induced by dizocilpine and amphetamine; cited from earlier work.

For `CC[C@H](C)[C@@H]1NC(=O)[C@H](Cc2ccc(O)cc2)NC(=O)[C@@H](N)CSSC[C@@H](C(=O)N2CCC[C@H]2C(=O)N[C@@H](CC(C)C)C(=O)NCC(N)=O)NC(=O)[C@H](CC(N)=O)NC(=O)[C@H](CCC(N)=O)NC1=O` [Oxytocin], the “increase in punished crossings from vehicle” value with Male Swiss-Webster mice (oxytocin 3 μg) is on record as 30%; in the test with Male Swiss-Webster mice (oxytocin 10 μg) it was 51%. The “punished crossings (effect in words)” value in the test on Male Swiss-Webster mice (oxytocin 1-10 μg icv (b94 prints 1-10 mg)) is reported as “dose-dependent increase in punished crossings”. In addition, in test [1], the “reversal of MK801 induced deficits in PPI” value was “reversed the MK801 induced deficits in PPI in rats in a dose dependent manner”. The “peripheral locomotor activity in the Open-Field model” value in the test on male rats was “decrease in peripheral locomotor activity”. In the test on mouse, the “activity in elevated-plus maze” value is “anxiolytic-like activity”. Further, the “open arm entries and time spent in the open arms of the elevated plus-maze” value in the test on rats (OT 10-100 ng, i.c.v.) was “increases in open arm entries and time spent in the open arms”. Moreover, the “activity in the elevated-plus maze” value with rats (pregnant or lactating rats, but not virgin rats) was “Anxiolytic activity”. Further, the “selectivity for OT compared to AVP at the OTR” value on OTR was 10 fold. The “restoration of prepulse inhibition” value in the test on rat is “dose-dependently restore prepulse inhibition”.
